The text below walks through data of patent US12336981B2, “Compounds and compositions for the inhibition of NAMPT” (Valo Health, Inc., priority 2010, dated 2025).

Where two headings read alike, the source gives them in different places.

Assay [1] deals with T1, NAMPT (Homo sapiens, UniProt P43490).
T1 construct: His tag; host or cells: E. coli
Description: Biochemical inhibition assay: NAMPT enzymatic reaction, NMN quantified by mass spectrometry. Particulars: read-out: Biochem IC50. In outline: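 Inhibition of E. coli-expressed His-tagged human NAMPT, measured as NMN formation by mass spectrometry after a 30 min room-temperature reaction containing 1 μM NAM, 100 μM PRPP and 2.5 mM ATP.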

The test system of assay [2] is A2780 cells. The experiment in a line: In-vitro cell proliferation assay (SRB), A2780 cells. Format: cell-based. Particulars: Homo sapiens, A2780, 72 h, A2780 cells, 72 hours, read-out: A2780 IC50. In outline: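 Growth inhibition was derived from background-corrected SRB absorbance (570 nm), measured on cells fixed in 6% TCA after three days of compound treatment under 5% CO2 at 37° C.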

T1 sequence (P43490 whole entry): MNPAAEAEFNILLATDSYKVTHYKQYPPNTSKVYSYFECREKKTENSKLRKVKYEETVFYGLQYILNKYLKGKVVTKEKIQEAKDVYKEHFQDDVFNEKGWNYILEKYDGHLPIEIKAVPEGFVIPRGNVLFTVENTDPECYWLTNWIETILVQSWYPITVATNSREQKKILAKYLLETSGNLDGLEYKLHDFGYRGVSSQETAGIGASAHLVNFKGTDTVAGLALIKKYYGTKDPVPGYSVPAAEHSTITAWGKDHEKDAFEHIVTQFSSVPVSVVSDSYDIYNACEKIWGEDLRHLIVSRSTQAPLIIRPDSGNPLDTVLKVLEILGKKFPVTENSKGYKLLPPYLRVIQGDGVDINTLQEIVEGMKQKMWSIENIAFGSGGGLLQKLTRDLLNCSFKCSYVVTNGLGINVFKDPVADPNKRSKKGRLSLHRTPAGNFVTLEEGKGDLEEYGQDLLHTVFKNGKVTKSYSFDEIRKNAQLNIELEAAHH

With `COc1ccc(C)c(NS(=O)(=O)c2ccc(CNC(=O)c3cc4cnccc4[nH]3)cc2)c1` [N-({4-[(5-methoxy-2-methylphenyl)sulfamoyl]phenyl}methyl)-1H-pyrrolo[3,2-c]pyridine-2-carboxamide], the IC50 (usually the concentration needed to halve the response being measured) in assay [1] (NAMPT enzymatic reaction) turned out to be 51 nM; in assay [2] (SRB assay), 13000 nM.

Regarding `COc1ccc(OC)c(S(=O)(=O)c2ccc(CNC(=O)c3cc4ccncc4s3)cc2)c1` [N-({4-[(2,5-dimethoxybenzene)sulfonyl]phenyl}methyl)thieno[2,3-c]pyridine-2-carboxamide], the IC50 amounted to 4 nM in assay [1] (NAMPT enzymatic assay) and 2.3 nM in assay [2] (SRB).

As to `COc1cc(S(=O)(=O)c2ccc(CNC(=O)c3ccc4nccn4c3)cc2)ccc1Cl`, the results for the IC50 in assay [1] (NAMPT enzymatic reaction) and in assay [2] (SRB) were 13.5 nM and 6 nM, respectively.

Turning to `O=C(NCc1ccc(S(=O)(=O)c2cccc(C(F)(F)F)c2Cl)cc1)c1cnc2nccn2c1`, the IC50 in assay [1] (NAMPT enzymatic assay) stood at 2.4 nM; in assay [2] (SRB), 24.6 nM.

Consider `CCCOc1ccc(S(=O)(=O)c2ccc(CNC(=O)c3cc4cnccc4[nH]3)cc2)cc1`, for which the IC50 in assay [1] (NAMPT enzymatic reaction) was determined as 5.3 nM; in assay [2] (SRB) it was 6.7 nM.

Consider `O=C(NCc1ccc(S(=O)(=O)c2ccccc2)cc1)c1ccc2cnccc2n1` [N-{[4-(benzenesulfonyl)phenyl]methyl}-1,6-naphthyridine-2-carboxamide], for which the IC50 was 2850 nM in assay [1] (NAMPT enzymatic assay) and above 10000 nM in assay [2] (SRB).

For the compound `CCOc1ccccc1S(=O)(=O)c1ccc(CNC(=O)c2cc3cnccc3[nH]2)cc1` [N-({4-[(2-ethoxybenzene)sulfonyl]phenyl}methyl)-1H-pyrrolo[3,2-c]pyridine-2-carboxamide], the IC50 in assay [1] (NAMPT enzymatic reaction) is 11 nM; in assay [2] (SRB assay), 2 nM.

With `CCCCOc1ccc(S(=O)(=O)c2ccc(CNC(=O)c3cc4ccncc4o3)cc2)cc1F`, the IC50 is 12.3 nM in assay [1] (NAMPT enzymatic reaction) and 13.9 nM in assay [2] (SRB).

Take `O=C(NCc1ccc(S(=O)(=O)c2ccccc2C(F)(F)F)cc1)c1cc2ccncc2o1`: the IC50 in assay [1] (NAMPT enzymatic assay) was determined as 19.4 nM; in assay [2] (SRB), 59.3 nM.

Consider `O=C(NCc1ccc(S(=O)(=O)c2cccc(C(F)(F)F)n2)cc1)c1cc2ccncc2s1` [N-({4-[6-(trifluoromethyl)pyridine-2-sulfonyl]phenyl}methyl)thieno[2,3-c]pyridine-2-carboxamide], for which the IC50 is 2.1 nM in assay [1] (NAMPT enzymatic assay) and 2.2 nM in assay [2] (SRB).

In the case of `CC(=O)c1ccccc1S(=O)(=O)c1ccc(CNC(=O)c2cnc3[nH]ncc3c2)cc1` [N-({4-[(2-acetylbenzene)sulfonyl]phenyl}methyl)-1H-pyrazolo[3,4-b]pyridine-5-carboxamide], the IC50 in assay [1] (NAMPT enzymatic reaction) came to 3.6 nM; in assay [2] (SRB) it was 11.4 nM.

As to `O=C(NCc1ccc(S(=O)(=O)c2cc(Cl)cc(C(F)(F)F)c2)cc1)c1cnc2[nH]ncc2c1` [N-[(4-{[3-chloro-5-(trifluoromethyl)benzene]sulfonyl}phenyl)methyl]-1H-pyrazolo[3,4-b]pyridine-5-carboxamide], the IC50 in assay [1] (NAMPT enzymatic assay) came to 7.8 nM; in assay [2] (SRB) it was 2.73 nM.

Regarding `Cc1cc(S(=O)(=O)c2ccc(CNC(=O)c3cc4ccncc4o3)cc2)ccc1F`, the IC50 in assay [1] (NAMPT enzymatic reaction) was 13.2 nM; in assay [2] (SRB) it was 6 nM.

With `N#Cc1ccc(S(=O)(=O)c2ccc(CNC(=O)c3cc4cnccc4[nH]3)cc2)cc1` [N-({4-[(4-cyanobenzene)sulfonyl]phenyl}methyl)-1H-pyrrolo[3,2-c]pyridine-2-carboxamide], the IC50 in assay [1] (NAMPT enzymatic reaction) came out at 11.1 nM; in assay [2] (SRB), 25.1 nM.

With `O=C(NCc1ccc(S(=O)(=O)c2cc(Cl)cc(CO)c2)cc1)c1ccc2nccn2c1`, the IC50 in assay [1] (NAMPT enzymatic assay) was 5.8 nM; in assay [2] (SRB), 1.4 nM.

Take `CS(=O)(=O)c1cccc(S(=O)(=O)c2ccc(CNC(=O)c3ccc4nccn4c3)cc2)c1`: the IC50 in assay [1] (NAMPT enzymatic reaction) was found to be 25.6 nM; in assay [2] (SRB), 16 nM.

For `Cc1cc(Cl)cnc1S(=O)(=O)c1ccc(CNC(=O)c2cnc3nccn3c2)cc1` [N-{[4-(5-chloro-3-methylpyridine-2-sulfonyl)phenyl]methyl}imidazo[1,2-a]pyrimidine-6-carboxamide], the IC50 in assay [1] (NAMPT enzymatic assay) was 2.2 nM; in assay [2] (SRB), 22 nM.

With `Cc1cc(C)c(S(=O)(=O)c2ccc(CNC(=O)c3cnc4nccn4c3)cc2)cc1C`, the IC50 in assay [1] (NAMPT enzymatic reaction) came to 6.9 nM; in assay [2] (SRB), 24 nM.

`COc1ccc(C)cc1S(=O)(=O)c1ccc(CNC(=O)c2cnc3[nH]ncc3c2)cc1` [N-({4-[(2-methoxy-5-methylbenzene)sulfonyl]phenyl}methyl)-1H-pyrazolo[3,4-b]pyridine-5-carboxamide]: the IC50 is 56.3 nM in assay [1] (NAMPT enzymatic reaction) and 24.4 nM in assay [2] (SRB).

With `CCOc1ccc(NS(=O)(=O)c2ccc(CNC(=O)c3cc4cnccc4[nH]3)cc2)c(F)c1` [N-({4-[(4-ethoxy-2-fluorophenyl)sulfamoyl]phenyl}methyl)-1H-pyrrolo[3,2-c]pyridine-2-carboxamide], the IC50 in assay [1] (NAMPT enzymatic reaction) stood at 154 nM; in assay [2] (SRB assay), 1600 nM.

As to `Cc1ccc(S(=O)(=O)c2ccc(CNC(=O)c3cc4ccncc4o3)cc2)cc1C`, the IC50 was found to be 15 nM in assay [1] (NAMPT enzymatic reaction) and 3 nM in assay [2] (SRB).

Take `CCCOc1ccc(S(=O)(=O)c2ccc(CNC(=O)c3cnc4[nH]ncc4c3)cc2)c(C)c1`: the IC50 was determined as 64.4 nM in assay [1] (NAMPT enzymatic reaction) and 79.4 nM in assay [2] (SRB).

Take `O=C(NCc1ccc(S(=O)(=O)c2cccc3c2OCO3)cc1)c1cc2cnccc2[nH]1` [N-{[4-(2H-1,3-benzodioxole-4-sulfonyl)phenyl]methyl}-1H-pyrrolo[3,2-c]pyridine-2-carboxamide]: the values for the IC50 in assay [1] (NAMPT enzymatic assay) and in assay [2] (SRB) were 20.5 nM and 11.8 nM, respectively.

Consider `COc1ccc(S(=O)(=O)c2ccc(CNC(=O)c3cnc4[nH]ncc4c3)cc2)c(OC)c1`, for which the IC50 in assay [1] (NAMPT enzymatic reaction) stood at 174 nM; in assay [2] (SRB), 44.7 nM.

Take `CCOCc1ccc(S(=O)(=O)c2ccc(CNC(=O)c3cc4cnccc4[nH]3)cc2)cc1`: the IC50 in assay [1] (NAMPT enzymatic assay) was found to be 22.5 nM; in assay [2] (SRB), 6.8 nM.

Take `O=C(NCc1cccc(S(=O)(=O)c2ccccc2)c1)c1cc2cnccc2[nH]1` [N-{[3-(benzenesulfonyl)phenyl]methyl}-1H-pyrrolo[3,2-c]pyridine-2-carboxamide]: the IC50 in assay [1] (NAMPT enzymatic reaction) and in assay [2] (SRB assay) was above 30000 nM throughout.

`CCOc1cccc(S(=O)(=O)c2ccc(CNC(=O)c3cc4ccncc4o3)cc2)c1F`: the IC50 in assay [1] (NAMPT enzymatic reaction) came to 17.5 nM; in assay [2] (SRB) it was 22.7 nM.

Take `COc1ccc(S(=O)(=O)c2ccc(CNC(=O)c3cnc4[nH]ncc4c3)cc2)c(OC)n1` [N-{[4-(2,6-dimethoxypyridine-3-sulfonyl)phenyl]methyl}-1H-pyrazolo[3,4-b]pyridine-5-carboxamide]: the IC50 in assay [1] (NAMPT enzymatic assay) was determined as 30.7 nM; in assay [2] (SRB), 2 nM.

Turning to `O=C(NCc1ccc(S(=O)(=O)c2ccc(Cl)cc2C(F)(F)F)cc1)c1ccc2nccn2c1`, the IC50 in assay [1] (NAMPT enzymatic assay) came to 19.8 nM; in assay [2] (SRB), 8.5 nM.

`CC(=O)c1cccc(S(=O)(=O)c2ccc(CNC(=O)c3cc4cnccc4[nH]3)cc2)c1` [N-({4-[(3-acetylbenzene)sulfonyl]phenyl}methyl)-1H-pyrrolo[3,2-c]pyridine-2-carboxamide]: the values for the IC50 in assay [1] (NAMPT enzymatic reaction) and in assay [2] (SRB assay) were 12 nM and 6 nM, respectively.

In the case of `CCOc1cc(S(=O)(=O)c2ccc(CNC(=O)c3ccc4nccn4c3)cc2)ccc1F`, the IC50 in assay [1] (NAMPT enzymatic reaction) came to 17 nM; in assay [2] (SRB), 6 nM.

Regarding `O=C(NCc1ccc(S(=O)(=O)Nc2cccc3cccnc23)cc1)c1cc2cnccc2[nH]1` [N-({4-[(quinolin-8-yl)sulfamoyl]phenyl}methyl)-1H-pyrrolo[3,2-c]pyridine-2-carboxamide], the IC50 in assay [1] (NAMPT enzymatic reaction) amounted to 75 nM; in assay [2] (SRB assay), 1480 nM.

In the case of `COc1ccc(S(=O)(=O)c2ccc(CNC(=O)c3cc4ccncc4o3)cc2)cc1F`, the IC50 is 2.2 nM in assay [1] (NAMPT enzymatic reaction) and 6.8 nM in assay [2] (SRB).

For the compound `O=C(NCc1ccc(S(=O)(=O)c2ccc(C(F)(F)F)cc2Cl)cc1)c1cnc2[nH]ncc2c1` [N-[(4-{[2-chloro-4-(trifluoromethyl)benzene]sulfonyl}phenyl)methyl]-1H-pyrazolo[3,4-b]pyridine-5-carboxamide], the IC50 stood at 114 nM in assay [1] (NAMPT enzymatic assay) and 86.9 nM in assay [2] (SRB).

For `Cn1cc2ccc(S(=O)(=O)c3ccc(CNC(=O)c4cc5ccncc5o4)cc3)cc2n1` [N-{[4-(2-methyl-2H-indazole-6-sulfonyl)phenyl]methyl}furo[2,3-c]pyridine-2-carboxamide], the IC50 in assay [1] (NAMPT enzymatic assay) is 3.4 nM; in assay [2] (SRB) it was 2.8 nM.

Consider `O=C(NCc1ccc(S(=O)(=O)N2CC3CCC(C2)O3)cc1)c1ccc2nccn2c1` [N-[(4-{8-oxa-3-azabicyclo[3.2.1]octane-3-sulfonyl}phenyl)methyl]imidazo[1,2-a]pyridine-6-carboxamide], for which the IC50 worked out at 4 nM in assay [1] (NAMPT enzymatic reaction) and 3 nM in assay [2] (SRB assay).

`O=C(NCc1ccc(S(=O)(=O)c2cccnc2)cc1)c1cc2ccncc2o1` [N-{[4-(pyridine-3-sulfonyl)phenyl]methyl}furo[2,3-c]pyridine-2-carboxamide]: the IC50 was determined as 9 nM in assay [1] (NAMPT enzymatic assay) and 66.4 nM in assay [2] (SRB).

For `O=C(NCc1ccc(S(=O)(=O)c2ccccc2)cc1)c1ccc2ncncc2c1` [N-{[4-(benzenesulfonyl)phenyl]methyl}quinazoline-6-carboxamide], the IC50 in assay [1] (NAMPT enzymatic reaction) is 16100 nM; in assay [2] (SRB assay), 21300 nM.

`O=C(NCc1ccc(S(=O)(=O)c2cccc(-c3ccccc3)c2)cc1)c1cc2ccncc2o1` [N-({4-[(3-phenylbenzene)sulfonyl]phenyl}methyl)furo[2,3-c]pyridine-2-carboxamide]: the IC50 in assay [1] (NAMPT enzymatic reaction) was 13.7 nM; in assay [2] (SRB), 23.4 nM.

For the compound `Cc1cccc(C)c1S(=O)(=O)c1ccc(CNC(=O)c2cnc3[nH]ncc3c2)cc1` [N-({4-[(2,6-dimethylbenzene)sulfonyl]phenyl}methyl)-1H-pyrazolo[3,4-b]pyridine-5-carboxamide], the IC50 was 159 nM in assay [1] (NAMPT enzymatic reaction) and 100 to 1000 nM in assay [2] (SRB).
